Drawing on patent EP0090368A1, “Anthelmintic preparations” (priority 1982, dated 1983), this text covers NOAEL and LD50 for two compounds.

Data set [1] is described as follows: Safety on oral administration to cattle (Example 12). The settings on record: bovine, in vivo, selenium, cobalt and fenbendazole in combination (preparation of Example 3), read-out: oral administration with no adverse effect observed. Here is the method:
The safety of the composition of Example 3 on oral administration to cattle was investigated: • A total of 16 cattle were treated-orally with the preparation of Example 3. Eight Friesian heifers weighing between 330 and 420 kg were treated with the preparation at the recommended dose of 7.5 ml per 100 kg body weight. Four Friesian cattle weighing between 930 and 990 kg were treated orally with the preparation at five times the recommended dose i.e. 37.5 ml per 100 kg. A further four Friesan cattle weighing between 870 and 1030 kg were treated orally with the preparation at ten times the recommended dose i.e. […].
The cattle were observed daily for a period of 21 days following treatment for any signs at adverse effect.

Data set [2] in a line: Toxicity in lambs, daily clinical examinations after oral treatment (Example 2). The conditions noted are these: sheep, in vivo, per os, given together with fenbendazole as developmental formulation, read-out: oral dose levels tolerated, no signs of drug toxicity. The procedure:
Animals: Twenty, six to eight month old lambs were made available for the purpose of this investigation. The lambs were allocated to five groups (n = 4) on the basis of mean faecal egg counts determined on each of three successive days.
Prior to treatment, all lambs were weighed. Lambs were maintained at grass as a single group for the duration of the study.
• Group 1: Untreated controls • Group 2: Treated with 5 mg/kg fenbendazole as Panacur 2.5 % Suspension (Commercial batch, "Panacur", is a Trade Mark) Composition of Panacur 2.5 % : as described in Example 1 with the omission of the selenium and cobalt components. • Group 3: Treated with 5 mg/kg fenbendazole as a developmental formulation (see below) • Group 4: Treated with 25 mg/kg fenbendazole as a developmental formulation (see below) • Group 5: Treated with 50 mg/kg fenbendazole as a developmental formulation (see below)
Groups 4 and 5 thus received five and ten times respectively the recommended dose of fenbendazole and cobalt, and 12.5 and 25 times respectively the recommended dose of selenium.
Clinical examinations were carried out on all lambs daily post treatment for the duration of the study.

For data set [3] the following is noted: per os, sheep; cited from earlier work.

For the compound `COC(=O)Nc1nc2ccc(Sc3ccccc3)cc2[nH]1` [Fenbendazole, 5-Phenyl-thio-2-benzimidazolecarbamic acid methylester, reference compound], in data set [1], the NOAEL at 504 h is at most 75 mg/kg.
For orientation: LD50 means the dose at which mortality reaches 50%. Turning to `[Se]` [elemental selenium], the NOAEL in data set [2] was at least 2 mg/kg. In addition, the median lethal dose (LD50) in data set [3] was 0.5 mg/kg. Moreover, the NOAEL at 504 h in data set [1] is at least 20 mg/kg.
